Data set [1] deals with P-gp. To be noted: read-out: EC50 (P-gp inhibition); cited from earlier work.
The test system of data set [2] is Bcrp. More on the design: method as in PMID 15930306. To be noted: read-out: EC50 (Bcrp inhibition); cited from earlier work.
Details of data set [3]: method as in PMID 23334925. Particulars: following ip dosing; cited from earlier work.
Data set [4] deals with orthotopic GBM1A tumors. In words: Pharmacodynamics: monopolar spindle formation in orthotopic GBM1A tumors. It counts as in vivo, NSG mice. Particulars: single ip dose 10 mg/kg each drug; 8 hours. The method, then: Female NSG mice were intracerebrally injected with 500,000 GBM1A cells at coordinates X = 1.5 mm, Y = 1.5 mm and Z = 2.5 mm relative to the bregma, and tumor growth was monitored by bioluminescence imaging. After 4 weeks (tumor size of about 2 × 10^9 photons/sec), animals were randomized to receive single ip dose of microemulsion vehicle, 10 mg/kg elacridar, 10 mg/kg ispinesib, or a combination of 10 mg/kg ispinesib and 10 mg/kg elacridar (n = 8–10). At 8 hours following treatment, mice were perfused and whole brains were isolated. The samples were processed for immunofluorescence by staining for tubulin with an alpha-tubulin antibody (Cell signaling, Cat#2125) and counter staining with DAPI for visualizing nuclei. Images were scanned and counted for cells with monopolar spindles.

In data set [5] the test system is orthotopic GBM1A tumors. It is filed as in vivo. To be noted: 10 mg/kg ip each drug once every 4 days for 28 days. The procedure: Female NSG mice were intracranially implanted with 500,000 luciferase expressing GBM1A cells (transduced with lentiviral particles expressing GFP-Luciferase). After 7 days, animals were randomized into four groups and ip administered with microemulsion vehicle, 10 mg/kg elacridar, 10 mg/kg ispinesib, or a combination of 10 mg/kg ispinesib and 10 mg/kg elacridar, once every 4 days for 28 days (n = 10). The dosing schedule of once every 4 days was based on our previously publication with ispinesib. Tumor growth was monitored by bioluminescence imaging and animals were followed for survival.
The progression of tumor growth was monitored by bioluminescence imaging (BLI) using an IVIS system. Mice that underwent stereotactic injection with GFP-luciferase expressing GBM1A cells were imaged twice a week. Ten minutes prior to imaging, mice were intraperitoneally injected with d-luciferin at 75 mg/kg body weight (3 mL/kg injection volume). Animals were immobilized using 1.5% − 3.0% isoflurane provided by nose cones within the imager and were kept warm using a heated stage set at 37 °C during the imaging procedure. Following imaging for about 5 minutes, animals were removed from the IVIS chamber and monitored until they fully recovered from anesthesia.

pEC50: −log10 of the molar value.

The term pEC50 denotes −log10 of the EC50, conventionally taken in molar units. Usually half-life stands for how long it takes for the measured level to halve.

For the compound `COc1cc2c(cc1OC)CN(CCc1ccc(NC(=O)c3cccc4c(=O)c5cccc(OC)c5[nH]c34)cc1)CC2` [Elacridar, N-[4-[2-(6,7-dimethoxy-3,4-dihydro-1H-isoquinolin-2-yl)ethyl]phenyl]-5-methoxy-9-oxo-10H-acridine-4-carboxamide], the results for the pEC50 in data set [1] and in data set [2] were […] and approximately 6.52, respectively. For the same compound, in data set [3], the half-life is […]. Besides, in data set [4], the “monopolar spindles in tumor core (tubulin/DNA staining)” value was “normal distribution of DNA”. Further, in data set [5] (days 7–37), the “tumor doubling time (bioluminescence, single exponential fit)” value is 6.2 days. Also, in data set [5] (vehicle 61 days), the median survival was 62 days.

Source of the values: PMC7162859 (Scientific Reports, 2020).
